Reference: patent US20250382332A1, “NOVEL ALPHA-FACTOR BASED PEPTIDES WITH ANTIFUNGAL ACTIVITY” (INVAIO SCIENCES, INC., priority 2024, published 2025)
Peptide text beside a SMILES is read from it.

Tested on: Botrytis cinerea (B05.10)
Assay: Resazurin antifungal assay of 180 alpha-factor peptide variants towards Botrytis (Example 2)
Assay type: cell-based
Conditions: % inhibition of fungal growth, Botrytis conidia, resazurin; for Inhibition at 50 μM: peptide 50 μM; for Inhibition at 100 μM: peptide 100 μM; for Inhibition at 10 μM: peptide 10 μM; for Inhibition at 20 μM: peptide 20 μM; for Inhibition at 15 μM: peptide 15 μM
Procedure: The antifungal activity of 180 alpha-factor peptide variants towards Botrytis was tested. Experimental design:
Peptides corresponding to SEQ ID NO: 1-180 were chemically synthesized using the solid-phase synthesis method and resuspended in water to a stock solution of 1 mM. The stock solution was aliquoted in cryovials and stored at −80° C.
The Botrytis cinerea culture (B05.10) isolate was acquired from the Centraalbureau voor Schimmelcultures, the Netherlands. The Botrytis fungus was propagated on 0.5% V8 agar plates (200 ml V8 Juice, 3 g CaCO3, 15 g agar, 800-ml millipore water) at 20° C., in a 12 h photoperiod for 21 days.
Fungal conidia were harvested by scraping a Botrytis plate flooded with 1 ml water with 0.1% Tween 80 solution. Conidia were then collected in a 50 ml falcon tube by passing the solution through a 40 micron filter. The solution was then centrifuged at 6000 rpm and the pellet was resuspended in 1 ml of 20% glycerol. The conidia concentration of the resulting solution was counted using a hemocytometer. The stock was diluted to […] using 20% glycerol and frozen in 100 μl aliquots in −80° C. until further use.
Peptides were tested for activity against Botrytis, using the resazurin assay. For this, fungal stock conidia was first diluted to 5000 conidia/well. 50 μl of the spore suspension was added to each well of the sterile 96-well clear bottom testing plate and mixed with 50 μl of peptide solutions to a final concentration of 100, 50, 20, 15 and 10 μM. The plate was incubated for 24 h at 20° C. After 24 h, 10 μl of resazurin dye was added to the microtiter plate and incubated again for […]. Fluorescence was measured at 570/620 nm after 4 h of incubation with resazurin.
Growth inhibition was calculated by subtracting the fluorescence values of conidia only wells from sample wells and depicted as % inhibition of fungal growth. Four technical replicates were used for all treatments.

Row | SMILES | Inhibition at 50 μM | Inhibition at 100 μM | Inhibition at 10 μM | Inhibition at 20 μM | Inhibition at 15 μM
1 | CSCC[C@H](NC(=O)[C@H](CO)NC(=O)[C@H](CCC(N)=O)NC(=O)CNC(=O)[C@@H]1CCCN1C(=O)[C@H](CCCCN)NC(=O)[C@H](Cc1ccccc1)NC(=O)[C@H](CCC(N)=O)NC(=O)[C@H](CC(C)C)NC(=O)CNC(=O)[C@@H](NC(=O)[C@@H]1CCCN1)[C@@H](C)O)C(=O)N[C@@H](Cc1ccc(O)cc1)C(=O)O [compound 45] (H-PTGLQFKPGQSMY-OH; N-terminus and C-terminus assumed) | <90% | <90% | – | – | –
2 | CSCC[C@H](NC(=O)[C@@H]1CCCN1C(=O)[C@H](CCC(N)=O)NC(=O)CNC(=O)[C@@H]1CCCN1C(=O)[C@H](Cc1c[nH]c2ccccc12)NC(=O)[C@H](Cc1ccccc1)NC(=O)[C@H](CCC(N)=O)NC(=O)CNC(=O)[C@@H](NC(=O)[C@H](CCCNC(=N)N)NC(=O)[C@@H](N)Cc1c[nH]c2ccccc12)[C@@H](C)O)C(=O)N[C@@H](Cc1ccc(O)cc1)C(=O)O [compound 146] (H-WRTGQFWPGQPMY-OH; N-terminus and C-terminus assumed) | <90% | <90% | – | – | –
3 | CSCC[C@H](NC(=O)[C@@H]1CCCN1C(=O)[C@H](CCC(N)=O)NC(=O)CNC(=O)[C@@H]1CCCN1C(=O)[C@H](CCCCN)NC(=O)[C@H](CC(C)C)NC(=O)[C@H](C)NC(=O)[C@H](CC(C)C)NC(=O)CNC(=O)CNC(=O)[C@@H](N)Cc1c[nH]c2ccccc12)C(=O)N[C@@H](Cc1ccc(O)cc1)C(=O)O [compound 48] (H-WGGLALKPGQPMY-OH; N-terminus and C-terminus assumed) | <90% | <90% | – | – | –
4 | CSCC[C@H](NC(=O)[C@@H]1CCCN1C(=O)[C@H](CCC(N)=O)NC(=O)CNC(=O)[C@@H]1CCCN1C(=O)[C@H](CCCCN)NC(=O)[C@H](Cc1ccccc1)NC(=O)[C@H](CO)NC(=O)[C@H](CC(C)C)NC(=O)[C@H](Cc1ccc(O)cc1)NC(=O)[C@H](Cc1c[nH]cn1)NC(=O)[C@@H](N)CCCCN)C(=O)N[C@@H](Cc1ccc(O)cc1)C(=O)O [compound 94] (H-KHYLSFKPGQPMY-OH; N-terminus and C-terminus assumed) | 97.32% | 100% | <90% | <90% | –
5 | CSCC[C@H](NC(=O)[C@@H]1CCCN1C(=O)[C@H](CCC(N)=O)NC(=O)CNC(=O)[C@H](CCCCN)NC(=O)[C@H](CCCCN)NC(=O)[C@H](Cc1ccccc1)NC(=O)[C@H](CO)NC(=O)CNC(=O)[C@H](Cc1c[nH]c2ccccc12)NC(=O)[C@H](Cc1c[nH]cn1)NC(=O)[C@@H]1CCCN1)C(=O)N[C@@H](Cc1ccc(O)cc1)C(=O)O [compound 2] (H-PHWGSFKKGQPMY-OH; N-terminus and C-terminus assumed) | 100% | 100% | <90% | <90% | –
6 | CC[C@H](C)[C@H](NC(=O)[C@H](CCCCN)NC(=O)[C@H](CC(C)C)NC(=O)[C@H](Cc1ccccc1)NC(=O)[C@H](Cc1c[nH]cn1)NC(=O)[C@@H](N)CCCCN)C(=O)N[C@@H](CCCCN)C(=O)N1CCC[C@H]1C(=O)NCC(=O)N[C@@H](CCC(N)=O)C(=O)N1CCC[C@H]1C(=O)N[C@@H](CCSC)C(=O)N[C@@H](Cc1ccc(O)cc1)C(=O)O [compound 86] (H-KHFLKIKPGQPMY-OH; N-terminus and C-terminus assumed) | 100% | 100% | <90% | 99.49% | <90%
7 | CSCC[C@H](NC(=O)[C@@H]1CCCN1C(=O)[C@H](CCSC)NC(=O)CNC(=O)[C@@H](NC(=O)[C@H](CCCCN)NC(=O)[C@H](CC(C)C)NC(=O)[C@H](CCC(=O)O)NC(=O)[C@H](CC(C)C)NC(=O)[C@H](Cc1c[nH]c2ccccc12)NC(=O)[C@H](CS)NC(=O)[C@@H](N)CCCCN)[C@@H](C)O)C(=O)N[C@@H](Cc1ccc(O)cc1)C(=O)O [compound 35] (H-KCWLELKTGMPMY-OH; N-terminus and C-terminus assumed) | <90% | 97.61% | – | – | –
8 | CSCC[C@H](NC(=O)[C@@H]1CCCN1C(=O)[C@H](CCC(N)=O)NC(=O)CNC(=O)[C@@H]1CCCN1C(=O)[C@H](Cc1ccc(O)cc1)NC(=O)[C@H](CC(C)C)NC(=O)[C@H](CCCCN)NC(=O)[C@H](CC(C)C)NC(=O)[C@H](Cc1c[nH]c2ccccc12)NC(=O)[C@H](CCC(=O)O)NC(=O)[C@@H]1CCCN1)C(=O)N[C@@H](Cc1ccc(O)cc1)C(=O)O [compound 49] (H-PEWLKLYPGQPMY-OH; N-terminus and C-terminus assumed) | <90% | <90% | – | – | –
9 | CSCC[C@H](NC(=O)[C@@H]1CCCN1C(=O)[C@H](CCC(N)=O)NC(=O)CNC(=O)[C@@H]1CCCN1C(=O)[C@H](CCCCN)NC(=O)[C@H](Cc1ccccc1)NC(=O)[C@H](CCCNC(=N)N)NC(=O)[C@H](CC(C)C)NC(=O)[C@@H](NC(=O)[C@H](Cc1c[nH]cn1)NC(=O)[C@@H](N)Cc1c[nH]c2ccccc12)C(C)C)C(=O)N[C@@H](Cc1ccc(O)cc1)C(=O)O [compound 101] (H-WHVLRFKPGQPMY-OH; N-terminus and C-terminus assumed) | 90.50% | 100% | <90% | <90% | –
10 | CSCC[C@H](NC(=O)CNC(=O)[C@H](CCC(N)=O)NC(=O)CNC(=O)[C@@H]1CCCN1C(=O)[C@H](Cc1ccccc1)NC(=O)[C@H](Cc1ccccc1)NC(=O)[C@H](CO)NC(=O)[C@H](CC(C)C)NC(=O)[C@H](Cc1c[nH]c2ccccc12)NC(=O)[C@H](Cc1c[nH]cn1)NC(=O)[C@@H]1CCCN1)C(=O)N[C@@H](Cc1ccc(O)cc1)C(=O)O [compound 34] (H-PHWLSFFPGQGMY-OH; N-terminus and C-terminus assumed) | <90% | <90% | – | – | –
11 | CC[C@H](C)[C@H](NC(=O)[C@H](CCCCN)NC(=O)[C@H](CC(C)C)NC(=O)[C@H](CCC(N)=O)NC(=O)[C@H](CC(C)C)NC(=O)[C@@H](NC(=O)[C@H](CCCCN)NC(=O)[C@@H](N)Cc1c[nH]c2ccccc12)[C@@H](C)O)C(=O)NCC(=O)N[C@@H](C)C(=O)N1CCC[C@H]1C(=O)N[C@@H](CCSC)C(=O)N[C@@H](Cc1ccc(O)cc1)C(=O)O [compound 60] (H-WKTLQLKIGAPMY-OH; N-terminus and C-terminus assumed) | 100% | 100% | <90% | <90% | –
12 | CSCC[C@H](NC(=O)[C@H](CO)NC(=O)[C@H](CO)NC(=O)CNC(=O)[C@@H]1CCCN1C(=O)[C@H](CCCCN)NC(=O)[C@H](CC(C)C)NC(=O)[C@H](CCC(N)=O)NC(=O)[C@H](CC(C)C)NC(=O)[C@@H](NC(=O)[C@H](CCCNC(=N)N)NC(=O)[C@@H](N)Cc1c[nH]c2ccccc12)C(C)C)C(=O)N[C@@H](Cc1ccc(O)cc1)C(=O)O [compound 50] (H-WRVLQLKPGSSMY-OH; N-terminus and C-terminus assumed) | <90% | <90% | – | – | –
13 | CC[C@H](C)[C@H](NC(=O)[C@H](Cc1c[nH]c2ccccc12)NC(=O)[C@H](CCC(=O)O)NC(=O)[C@@H]1CCCN1)C(=O)N[C@@H](CCC(N)=O)C(=O)N[C@@H](CC(C)C)C(=O)N[C@@H](CCCCN)C(=O)N[C@H](C(=O)NCC(=O)N[C@@H](CCSC)C(=O)N1CCC[C@H]1C(=O)N[C@@H](CCSC)C(=O)N[C@@H](Cc1ccc(O)cc1)C(=O)O)[C@@H](C)O [compound 40] (H-PEWIQLKTGMPMY-OH; N-terminus and C-terminus assumed) | <90% | <90% | – | – | –
14 | CC[C@H](C)[C@H](NC(=O)[C@H](Cc1c[nH]c2ccccc12)NC(=O)[C@H](Cc1c[nH]cn1)NC(=O)[C@@H](N)CCCCN)C(=O)N[C@@H](CCCNC(=N)N)C(=O)N[C@@H](CC(C)C)C(=O)N[C@@H](Cc1c[nH]c2ccccc12)C(=O)N1CCC[C@H]1C(=O)NCC(=O)N[C@@H](CCC(N)=O)C(=O)N1CCC[C@H]1C(=O)N[C@@H](CCSC)C(=O)N[C@@H](Cc1ccc(O)cc1)C(=O)O [compound 75] (H-KHWIRLWPGQPMY-OH; N-terminus and C-terminus assumed) | 100% | 100% | <90% | 92.02% | <90%
